Laboratory results as given in patent US9243036B2, “Anti-microbial activity of synthetic peptides” (THE UNITED STATES OF AMERICA, as represented by the …, priority 2012, dated 2016).

Experiments:
[1] = tested on: E. coli and P. aeruginosa; assay: MIC of polymyxin B (bacterium not stated; E. coli / P. aeruginosa context); format: cell-based
Procedure: In vitro anti-bacterial activity of EC5. The test microorganisms mentioned earlier in the experimental procedures were used to evaluate the bactericidal activity of EC5 peptide. The minimum inhibitory concentrations (MICs) of the peptide were determined by standard dilution assay as recommended by Clinical and Laboratory Standard Institutes (CLSI) guidelines (Azad, M. A., et al., (2011) Antimicrob. Agents Chemother. 55, 2137-2145). Bacteria were grown to mid-logarithmic phase in cation-supplemented Mueller-Hinton broth (MHB) (Becton Dickinson, Sparks, Md.) on an orbital shaker (37° C.) and diluted to a 0.5 McFarland standard to a final volume of 1 ml. Decreasing concentrations of the peptide were incubated with the microorganisms. Results were recorded by visual inspection after 24 h of incubation at 37° C. Assay was repeated three separate times to ensure reproducibility. […]
Cytoplasmic depolarization assay(Δψ) was performed using the membrane potential sensitive dye 3,3′-dipropylthiadicarbocyanine iodide (diSC3-5) (Zang, L. et al., (2001) J. Biol. Chem. 276, 35714-35722). This dye can cross the outer membrane of the bacterial cell and become concentrated in the cytoplasmic membrane and thereby it self-quenches its own fluorescence. Upon addition of a membrane-permeabilizing agent the dye is released with consequent increase in the fluorescence. […]

[2] = literature; cited from earlier work
[3] = polymyxin B; cited from earlier work
[4] = tested on: E. coli; assay: Membrane permeability by PI and SYTO9 uptake (LIVE/DEAD BACLIGHT); format: cell-based; details: even at the lowest concentration used
Procedure: (§1) The effects of EC5 on the membrane integrity of E. coli and P. aeruginosa cells were assessed using the LIVE/DEAD BACLIGHT™ kit (Invitrogen, Oregon) according to the manufacturer's protocol. Membrane integrity of the cells after the addition of different concentrations of peptide EC5 was measured using fluorescence micro plate reader (BioTek Instruments, Winooski, Vt.). Experiments were done in triplicates. PMB was used as a positive control.
(§2) The membrane permeabilizing activity of EC5 was also studied using the SYTO9 and PI staining method. SYTO9 stain labels both live and dead bacteria when alone, but propidium iodide stains only cells with damaged membranes, reducing the level of green fluorescent SYTO9 when both the dyes are present. […] The ratio of green versus red fluorescence can be calculated as a measure of live bacteria. […] Polymyxin B, an AMP with a net charge of +5 with membrane permeabilizing activity was used as positive control.

[5] = tested on: P. aeruginosa; assay: as above; format: cell-based; details: even at the lowest concentration used
Procedure: as §1, §2

[6] = tested on: E. coli; assay: Cytoplasmic membrane depolarization assay (diSC3-5) with parallel CFU plating; format: cell-based
Procedure: (§3) Membrane depolarization activity (Δψ) of the peptide was determined with intact E. coli and P. aeruginosa cells and the membrane potential-sensitive fluorescent dye, 3,3′-dipropylthiadicarbocyanine Iodide (diSC (3)5) (Invitrogen, Oregon), according to described methods (Sims, P. J., et al (1974) Biochemistry 13, 3315-3330). Briefly, bacterial cells of mid-logarithmic phase were harvested by centrifugation and washed twice with HEPES buffer (5 mM HEPES, 5 mM glucose, pH 7.6). The cells were suspended in the same buffer to an OD of 0.05. The cell suspension was incubated with […] diSC (3)5 until maximal uptake of the dye. 100 mM KCl was added to equilibrate the cytoplasmic and external potassium ion concentration of peptide, and fluorescence was monitored at an excitation wavelength of 622 nm and an emission wavelength of 670 nm. Polymyxin B was used as a positive control and S. aureus cells were used as negative control. Simultaneously the cells were plated on NA plates and incubated at 37° C. overnight to assess the number of CFU.
(§4) Cytoplasmic depolarization assay(Δψ) was performed using the membrane potential sensitive dye 3,3′-dipropylthiadicarbocyanine iodide (diSC3-5) (Zang, L. et al., (2001) J. Biol. Chem. 276, 35714-35722). This dye can cross the outer membrane of the bacterial cell and become concentrated in the cytoplasmic membrane and thereby it self-quenches its own fluorescence. Upon addition of a membrane-permeabilizing agent the dye is released with consequent increase in the fluorescence. EC5 at 8 μg/ml and 16 μg/ml caused rapid depolarization of the cytoplasmic membrane in both E. coli and P. aeruginosa resulting in the release of diSC3-5 within 5 min (FIG. 9C). […] However Polymyxin B even at its MIC of 0.5 μg/ml caused slow release of diSC3-5 when compared to EC5.

[7] = tested on: P. aeruginosa; assay: as above; format: cell-based
Procedure: as §3, §4

[8] = polymyxin B at 3.125 μg/ml, after 5 min of exposure
[9] = polymyxin B at its MIC of 0.5 μg/ml, compared to EC5

## Polymyxin B
[1]
  MIC of polymyxin B: 0.5 mg/L
[2]
  toxicity: high toxicity, especially nephrotoxicity
[3]
  net charge: +5
[4]
  permeabilization of bacterial cell membranes: able to permeabilize almost all bacterial cell membranes
[5]
  permeabilization of bacterial cell membranes: able to permeabilize almost all bacterial cell membranes
[6]; polymyxin B at 3.125 μg/ml
  time to complete inhibition of CFU: ≤ 5 min
[6]; [8]
  release of diSC35 from the cells: minimal release
[6]; [9]
  release of diSC3-5: slow release
[7]; polymyxin B at 3.125 μg/ml
  time to complete inhibition of CFU: ≤ 5 min
[7]; [8]
  release of diSC35 from the cells: minimal release
[7]; [9]
  release of diSC3-5: slow release
